Patent US9701711B2, “Modulators of protease activated receptors” (THE UNIVERSITY OF QUEENSLAND, priority 2010, dated 2017)

Columns and labels:
PAR2 [1] = molecular target: T1, PAR2 (Homo sapiens, UniProt P55085); conditions: cited from earlier work
T1 sequence (P55085 26-397): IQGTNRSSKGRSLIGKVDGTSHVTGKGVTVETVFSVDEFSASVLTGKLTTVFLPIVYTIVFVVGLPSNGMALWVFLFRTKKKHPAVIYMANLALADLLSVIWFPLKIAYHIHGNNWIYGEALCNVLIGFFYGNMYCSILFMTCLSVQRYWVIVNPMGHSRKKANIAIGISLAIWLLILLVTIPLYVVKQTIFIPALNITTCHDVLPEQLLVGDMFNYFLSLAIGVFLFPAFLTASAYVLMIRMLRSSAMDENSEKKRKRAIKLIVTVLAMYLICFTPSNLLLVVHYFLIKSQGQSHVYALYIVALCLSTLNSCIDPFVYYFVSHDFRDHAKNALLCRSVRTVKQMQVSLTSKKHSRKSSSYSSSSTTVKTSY

PAR2 [2] = molecular target: T2, PAR2 (Rattus norvegicus, UniProt Q63645); experiment: Acute inflammatory model: PAR2-induced paw oedema; type: in vivo; conditions: Wistar rat, 10 mg/kg p.o. in olive oil, n=3; agonist 350 μg/paw 2 h after oral dose
T2 construct: from tissue; host or cells: paw of living male Wistar rats
T2 sequence (Q63645 26-397): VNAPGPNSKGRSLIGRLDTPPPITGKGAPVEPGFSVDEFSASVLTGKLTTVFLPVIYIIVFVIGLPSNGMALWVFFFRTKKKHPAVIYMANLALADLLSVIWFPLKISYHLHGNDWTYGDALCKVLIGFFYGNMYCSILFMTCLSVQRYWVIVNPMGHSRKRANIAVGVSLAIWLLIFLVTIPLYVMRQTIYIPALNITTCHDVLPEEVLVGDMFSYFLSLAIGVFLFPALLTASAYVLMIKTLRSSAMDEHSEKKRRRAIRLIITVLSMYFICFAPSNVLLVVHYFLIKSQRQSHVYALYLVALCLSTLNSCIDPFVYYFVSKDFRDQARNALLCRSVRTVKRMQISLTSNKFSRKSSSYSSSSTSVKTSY
Procedure: FIG. 9. Graphical representation of the ability of PAR2 antagonists 18, 30, 42, 44 to attenuate experimental paw oedema.
The methods used are based on those previously described (Kelso. E. B., et al. Arthritis Rheum 2007, 56, 765-71; Kelso. E. B., et al. J Pharmacol Exp Ther 2006, 316, 1017-24; and Vergnolle, N. J Immunol 1999, 163, 5064-9). Male Wistar rats (n=3 per group) are used. Briefly, rats are given either 5 or 10 mg/kg of a compound of the present invention (p.o. via gavage in olive oil, approx. 500 μL, weight adjusted). Control animals receive only olive oil (500 μL p.o.). Two hours later, the PAR2 agonist 2-furoyl-LIGRLO (350 μg/paw in saline, 100 μL) is injected into the plantar surface (i.pl.) of the right paw pad using a 30 G needle. The left paw acts as a control, receiving saline only. Paw thickness and width are measured after 30 minutes and hourly using digital calipers (World Precision Instruments, USA) and swelling is calculated in area (mm^2; thickness multiplied by width) and expressed as a percentage change from baseline of each individual paw. Results for exemplary PAR2 ligands 18, 30, 42 and 44 are illustrated in FIG. 9.

[3] = Stability in rat liver homogenate; type: in vitro ADME; conditions: 10 μM, 37° C., up to 180 minutes
Procedure: Blood and liver is collected form non-drug dosed male and female Wistar rats (aged 8-9 weeks, 200-250 g and 250-300 g respectively). Bloods are centrifuged at 8 K rpm for 5 min. Plasma are pooled and stored at −80° C. for later use. The rat livers are homogenized, diluted with three volumes of PBS, cloth filtered. The filtrate is used directly for stability studies.
Lach compound is dissolved in DMSO to make […] stock solution. 10 μL of the stock is diluted with either rat plasma or liver homogenate (490 μL) to make up a starting concentration of 10 μM (triplicates). The mixtures are vortexed and incubated at 37° C. At each time point of 0, 30, 60 and 180 minutes. 100 μL of the mixture is taken and diluted with 300 μL of acetonitrile. The mixture is vortexed and centrifuged, 350 μL of the liquid is transferred into a microfuge tube and concentrated using a rotational vacuum concentrator (Christ Beta-RVC, supplied by Quantum Scientific). 100 μL of acetonitrile water (9:1, v/v) is added to the residue, vortexed and immediately analysed by LCMS/MS. Data from these experiments are expressed as percent of peak area recorded from the LCMS/MS trace at time zero (t0).

PAR2 [4] = molecular target: T1, PAR2; experiment: PAR2 agonist inhibition (antagonism) by intracellular Ca2+ release in HT29 cells; type: cell-based; set-up: Agonists of Ca^2+ release in HT29 cells; endogenous in cells; host or cells: HT29 (human cell line, cultured per ATCC information); conditions: HT29 cells; 30 min pre-incubation, then PAR2 agonist (1 μM 2f-LIGRLO-NH2); read-out: IC50, inhibition of Ca2+ release in HT29 cells
From the text: The ability of the compounds of the present invention to activate PAR2 may be assessed via calcium mobilisation assays. It is appreciated that compounds that activate the release of intracellular calcium from one type of cell are agonists or partial agonists, while those that inhibit such release may be antagonists. […] The general assay protocols may vary slightly depending on the chosen cell line. In general, during cell culture passage, cell dissociation solution (CDS, Sigma Aldrich) is used to replace trypsin to dissociate cells from surface. Lipopolysaccharide (LPS) and trypsin are purchased from Sigma Aldrich. […] ELISA sets are purchased from BD Pharmingen (San Jose, Calif.) and cytokine array kits are purchased from RayBiotecho (Norcross, Ga.).
Cells are seeded overnight in 96-well black walled, clear bottomed, plate at approximately 2×10^4 to 4×10^5 cells per well. […] The cells are then washed twice with HBSS and transferred to a Polarstar spectrotluorimeter (BMG, Durham N.C.).
The cells are prepared as outlined above then treated with the “putative” antagonist 30 min prior to the addition of either trypsin or a synthetic agonist at a concentration equal to the agonists ED80.
The cells were then treated with 1 μM of the PAR2 agonist 2f-LIGRLO-NH2 (FIG. 2A. n=5) or 100 nM Trypsin (FIG. 2B, n=1). Each data point represents mean±SEM. Net changes in fluorescence were calculated as a percentage relative to the maximum response given 1 μM 2f-LIGRLO-NH2 or 100 nM Trypsin. Changes in fluorescence (% response) were plotted against logarithmic compound concentrations. The half maximal inhibitory concentration (IC50) values were derived from the dose response curve using a nonlinear regression curve in Graphpad Prism v5.

Paw swelling induced by 2-f-LIGRLO-NH2 (PAR2 [2]) | Stability in rat liver homogenate [3] | IC50 (PAR2 [4]) | Compound | Selectivity for PAR2 over PAR1 (PAR2 [1]) | Agonist potency relative to SLIGRL-NH2 (PAR2 [1]; higher agonist potency than SLIGRL-NH2)
– | – | – | 2-furoyl-LIGRL-NH2 | selective for PAR2 over PAR1 | ~20 fold
reduced the paw swelling | decomposed to varied degree | 500 ± 100 nM | CC[C@H](C)[C@H](NC(=O)[C@H](CC1CCCCC1)NC(=O)c1ccno1)C(=O)NCc1ccccc1OC [Compound 18, 5-isoxazoyl-Cha-Ile-aminomethyl-(2-methoxy)phenyl] | – | –
reduced the paw swelling | decomposed to varied degree | – | CC[C@H](C)[C@H](NC(=O)[C@H](CC1CCCCC1)NC(=O)c1cc(N)no1)C(=O)N1CCC2(C=Cc3ccccc32)CC1 [Compound 42, 5-(3-amino-isoxazoyl)-Cha-Ile-spiro[indene-1,4′-piperidine]] | – | –
reduced the paw swelling | decomposed to varied degree | 1000 nM | CO[C@H](C)[C@H](NC(=O)[C@H](CC1CCCCC1)NC(=O)c1ccno1)C(=O)N1CCC2(C=Cc3ccccc32)CC1 [Compound 44, 5-isoxazoyl-Cha-Thr(Me)-spiro[indene-1,4′-piperidine]] | – | –

Compound | Paw swelling induced by 2-f-LIGRLO-NH2 (PAR2 [2]) | Stability in rat liver homogenate [3] | IC50 (PAR2 [4]) | Selectivity for PAR2 over PAR1 (PAR2 [1]) | Agonist potency relative to SLIGRL-NH2 (PAR2 [1]; higher agonist potency than SLIGRL-NH2)
CC[C@H](C)[C@H](NC(=O)[C@H](CC1CCCCC1)NC(=O)c1ccno1)C(=O)N1CCC(c2ccccc2)CC1 [Compound 30, 5-isoxazoyl-Cha-Ile-(4-phenyl)piperidine] | reduced the paw swelling | decomposed to varied degree | – | – | –
